Consider 1 molecule from patent US20250115597A1, “TYK2 INHIBITORS AND COMPOSITIONS AND METHODS THEREOF” (LYNK PHARMACEUTICALS CO. LTD., priority 2021, published 2025).

Series [1] in a line: Plasma protein binding by equilibrium dialysis. The format is in vitro ADME. As to conditions: human plasma, equilibrium dialysis 5 hours at 37° C.; read-out: % Bound (human) (converted). In a few lines:
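Compound spiked into plasma at 0.2 and 2 μM was dialyzed against PBS for 5 h at 37° C with shaking, in duplicate. Plasma and buffer chambers were matrix-matched, protein-precipitated and analysed by LC-MS/MS to derive % unbound, % bound and % recovery.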

The target in series [2] is T1, Ba/F3-FL-TYK2-P760L cells (Homo sapiens, UniProt P29597, P760L, cells depend on it).
T1 construct: BaF3-FL-T2P760L (nM)
T1 sequence (P29597 whole entry P760L): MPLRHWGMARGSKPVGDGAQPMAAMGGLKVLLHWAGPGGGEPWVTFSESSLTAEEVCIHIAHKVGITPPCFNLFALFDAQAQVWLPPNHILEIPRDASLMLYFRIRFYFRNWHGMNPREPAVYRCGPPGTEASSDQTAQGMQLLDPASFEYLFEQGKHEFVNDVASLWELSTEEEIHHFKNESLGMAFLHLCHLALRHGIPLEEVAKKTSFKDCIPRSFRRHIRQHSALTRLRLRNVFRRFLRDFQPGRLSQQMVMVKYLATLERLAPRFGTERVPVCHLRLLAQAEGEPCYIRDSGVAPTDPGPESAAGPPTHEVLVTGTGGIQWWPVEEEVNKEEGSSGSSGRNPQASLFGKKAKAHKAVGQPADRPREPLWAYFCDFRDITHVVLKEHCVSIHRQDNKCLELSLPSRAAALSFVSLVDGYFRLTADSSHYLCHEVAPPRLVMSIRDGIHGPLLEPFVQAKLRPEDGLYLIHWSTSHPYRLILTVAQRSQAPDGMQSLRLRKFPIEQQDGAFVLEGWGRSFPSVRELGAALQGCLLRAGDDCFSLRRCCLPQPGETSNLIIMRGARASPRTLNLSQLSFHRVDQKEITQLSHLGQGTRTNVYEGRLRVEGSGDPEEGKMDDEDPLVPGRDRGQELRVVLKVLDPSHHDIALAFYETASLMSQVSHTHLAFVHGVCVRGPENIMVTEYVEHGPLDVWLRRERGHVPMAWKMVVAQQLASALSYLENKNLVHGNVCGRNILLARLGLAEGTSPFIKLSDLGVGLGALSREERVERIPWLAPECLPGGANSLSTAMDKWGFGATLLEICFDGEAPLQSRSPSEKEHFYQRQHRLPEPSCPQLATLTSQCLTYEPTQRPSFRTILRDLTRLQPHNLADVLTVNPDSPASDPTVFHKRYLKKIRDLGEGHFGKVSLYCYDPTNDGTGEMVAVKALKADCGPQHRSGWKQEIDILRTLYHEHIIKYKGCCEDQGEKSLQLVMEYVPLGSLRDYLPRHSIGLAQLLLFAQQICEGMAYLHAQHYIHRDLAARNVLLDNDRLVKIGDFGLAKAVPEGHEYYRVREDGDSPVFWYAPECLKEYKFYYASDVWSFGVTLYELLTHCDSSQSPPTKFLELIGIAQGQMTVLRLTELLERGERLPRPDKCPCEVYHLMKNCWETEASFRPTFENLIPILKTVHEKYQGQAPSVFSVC
Nature of the series: Anti-proliferative assay, Ba/F3-FL-TYK2-P760L cells (Cell-Titer Glo). The format is cell-based. As to conditions: 72 h, read-out: BaF3-FL-T2P760L IC50. In a few lines: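 Compound exposure ran 72 h at 37 °C in 5% CO2 across nine 3-fold concentrations from a 20 μM top dose, added 24 h after seeding 2000 cells/well.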

For series [3], the target named is T2, JAK2 (Homo sapiens, UniProt O60674).
T2 construct: purchased Carna Biosciences
T2 sequence (O60674 whole entry): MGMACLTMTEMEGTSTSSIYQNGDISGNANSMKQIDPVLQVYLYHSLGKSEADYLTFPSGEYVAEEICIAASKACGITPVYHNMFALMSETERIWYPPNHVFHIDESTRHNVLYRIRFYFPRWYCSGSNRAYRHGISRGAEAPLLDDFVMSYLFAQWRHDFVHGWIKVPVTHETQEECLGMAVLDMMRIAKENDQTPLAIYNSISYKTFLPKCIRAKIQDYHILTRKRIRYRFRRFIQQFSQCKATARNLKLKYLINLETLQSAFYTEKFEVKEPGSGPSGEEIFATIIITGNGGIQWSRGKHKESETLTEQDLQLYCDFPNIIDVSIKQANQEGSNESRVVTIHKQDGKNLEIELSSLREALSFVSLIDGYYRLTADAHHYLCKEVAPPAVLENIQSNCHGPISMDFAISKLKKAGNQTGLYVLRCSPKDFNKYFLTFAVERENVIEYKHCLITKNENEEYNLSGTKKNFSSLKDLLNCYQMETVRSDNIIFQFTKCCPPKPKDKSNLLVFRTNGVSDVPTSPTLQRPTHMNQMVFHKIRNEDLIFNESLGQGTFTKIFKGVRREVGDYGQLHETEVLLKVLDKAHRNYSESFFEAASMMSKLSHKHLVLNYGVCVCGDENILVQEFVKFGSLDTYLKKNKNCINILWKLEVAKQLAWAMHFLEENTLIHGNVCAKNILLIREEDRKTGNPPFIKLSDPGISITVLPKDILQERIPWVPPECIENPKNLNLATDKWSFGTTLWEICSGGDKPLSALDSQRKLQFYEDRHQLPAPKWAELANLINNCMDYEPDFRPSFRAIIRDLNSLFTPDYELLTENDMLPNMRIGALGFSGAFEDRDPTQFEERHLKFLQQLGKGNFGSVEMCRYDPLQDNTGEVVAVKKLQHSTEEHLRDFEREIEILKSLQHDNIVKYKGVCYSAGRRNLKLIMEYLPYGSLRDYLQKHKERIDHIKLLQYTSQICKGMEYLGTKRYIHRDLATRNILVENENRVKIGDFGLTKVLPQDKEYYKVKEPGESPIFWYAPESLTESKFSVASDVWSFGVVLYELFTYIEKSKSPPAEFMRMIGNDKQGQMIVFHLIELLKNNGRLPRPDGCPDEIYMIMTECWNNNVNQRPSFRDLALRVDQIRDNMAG
In words: JAK2 kinase activity, microfluidic assay (Caliper EZ Reader II). The format is biochemical. As to conditions: JAK2 0.125 nM, 1 mM ATP. In a few lines:
(§1)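 Human JAK1, JAK2 or TYK2 enzyme was used in 50 mM HEPES, 10 mM MgCl2, 2 mM DTT and 0.01% Brij35, tuned to 10% conversion of a FAM-labelled peptide. Threefold dilutions of compound (top 5 µM, 1% DMSO) were pre-incubated with enzyme for 10 min, and reactions were stopped with EDTA. Phosphorylation was read by microfluidic mobility shift, and IC50 came from percent-inhibition curves.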

In series [4] the test system is pSTAT1. In words: Phosphorylation inhibition of STAT in human whole blood, IFN-alpha stimulated (flow cytometry). As to conditions: 20 min; human whole blood, IFN-alpha 20 mins, CD3 cells; read-out: IC50 on pSTAT1 inhibition in h WB. The format is cell-based. In a few lines: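 Readout is pSTAT1 (Y701) in CD3-stained cells by flow cytometry, with IC50 derived from a 4-parameter logistic equation. Fresh human PBMC or fresh whole blood received a 20-min Universal Type I IFN-alpha stimulation before fixation and cold permeabilization.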
On the technique in general: A flow cytometer gives signals particle by particle.

The target of series [5] is T3, JAK1 (Homo sapiens, UniProt P23458).
T3 construct: purchased Carna Biosciences
T3 sequence (P23458 whole entry): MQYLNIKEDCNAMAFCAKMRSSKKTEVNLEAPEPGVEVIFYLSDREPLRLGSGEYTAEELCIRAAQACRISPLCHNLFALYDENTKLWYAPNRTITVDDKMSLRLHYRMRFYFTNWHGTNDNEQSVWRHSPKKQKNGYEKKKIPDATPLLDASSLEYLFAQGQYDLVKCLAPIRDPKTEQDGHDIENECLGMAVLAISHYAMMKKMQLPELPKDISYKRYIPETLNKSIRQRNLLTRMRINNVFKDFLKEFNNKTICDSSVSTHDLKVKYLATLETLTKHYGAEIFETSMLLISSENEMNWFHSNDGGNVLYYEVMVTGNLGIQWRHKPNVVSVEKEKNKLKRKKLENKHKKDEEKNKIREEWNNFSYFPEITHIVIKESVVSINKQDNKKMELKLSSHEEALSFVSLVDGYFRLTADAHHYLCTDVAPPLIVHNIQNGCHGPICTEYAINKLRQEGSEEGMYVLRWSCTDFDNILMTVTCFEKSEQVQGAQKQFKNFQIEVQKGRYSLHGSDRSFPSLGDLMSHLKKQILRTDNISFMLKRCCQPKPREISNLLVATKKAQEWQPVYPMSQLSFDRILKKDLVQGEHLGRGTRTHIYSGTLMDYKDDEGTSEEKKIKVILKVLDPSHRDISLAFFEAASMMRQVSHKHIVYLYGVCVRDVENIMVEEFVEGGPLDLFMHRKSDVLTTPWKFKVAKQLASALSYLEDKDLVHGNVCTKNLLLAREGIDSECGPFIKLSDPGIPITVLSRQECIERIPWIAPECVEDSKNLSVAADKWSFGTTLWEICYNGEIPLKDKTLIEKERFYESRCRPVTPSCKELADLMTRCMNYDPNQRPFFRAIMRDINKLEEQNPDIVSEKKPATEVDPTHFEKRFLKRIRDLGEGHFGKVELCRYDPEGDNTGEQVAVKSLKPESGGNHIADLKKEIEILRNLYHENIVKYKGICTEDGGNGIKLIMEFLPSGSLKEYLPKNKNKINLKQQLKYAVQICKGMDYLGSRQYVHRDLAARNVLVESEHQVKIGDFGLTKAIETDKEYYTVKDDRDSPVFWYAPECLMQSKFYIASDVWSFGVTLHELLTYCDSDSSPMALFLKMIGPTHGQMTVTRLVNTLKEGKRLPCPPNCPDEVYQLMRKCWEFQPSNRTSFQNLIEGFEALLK
Nature of the series: JAK1 kinase activity, microfluidic assay (Caliper EZ Reader II). The format is biochemical. As to conditions: JAK1 5 nM, 1 mM ATP. The procedure, abridged:
as §1

Series [6] addresses T4, TYK2 (Homo sapiens, UniProt P29597).
T4 construct: purchased Carna Biosciences
In words: TYK2 kinase activity, microfluidic assay (Caliper EZ Reader II). The class given is biochemical. As to conditions: TYK2 1 nM, 1 mM ATP. In a few lines: as §1

Series [7] relates to pSTAT1. In words: Phosphorylation inhibition of STAT in human PBMC, IFN-alpha stimulated (flow cytometry). The format is cell-based. As to conditions: 20 min; human PBMC, IFN-alpha 20 mins, CD3 cells; read-out: IC50 on pSTAT1 inhibition in hPBMC. The protocol:
Phosphorylation Inhibition of STAT in Human PBMC and Human Whole Blood Testing:
The inhibitory potential of test articles in human PBMC and human whole blood assay was evaluated by the method of flow cytometry.
IFN-alpha will activate JAK1 and TYK2 kinase in T cells by binding to IFN receptors, and then lead to phosphorylation of STAT1 and STAT2. The phosphorylated STAT1 enter nuclear and promote transcription and expression of IFN-gamma. To evaluate the efficacy of TYK2i in T cells, freshly prepared human PBMC or freshly collected human whole blood will be stimulated with certain unit of human IFN-alpha (Universal Type I IFN(1MU), R&D, 11200-2) for 20 mins in incubator. After stimulation, fix cells with Phosflow™ Fix Buffer I (BD, 557870), and then collect fixed cells by centrifugation (500 g, 8 min). Wash cells once with pre-cooled PBS, and then permeabilize cells with cold Perm Buffer III buffer (BD, 558050) for 45 mins on ice. Collect cells by centrifugation (600 g, 8 min) and washed twice with cold PBS. Stain cells with anti-human CD3 (FITC Mouse Anti-Human CD3, BD, 555332) and anti-pSTAT1_Y701(Alexa Fluor 647 Mouse Anti-Stat1 (pY701), BD, 612597) antibodies. Detect pSTAT1 by flow cytometry (CytoFlex S) and analyze data with FlowJo and GraphPad Prism 8 software. IC50 values of test articles were determined using 4-parameter logistic equation.

T4 sequence (P29597 whole entry): as the sequence (P29597 whole entry P760L) above, with L760P counted along it

By IC50 is commonly meant the concentration that inhibits the measured activity by half. For `[2H]C([2H])([2H])NC(=O)c1cnc(NC(=O)C2CC2)cc1Nc1ccc2cnn(CC#N)c2c1OC` [Example 202, 4-((1-(Cyanomethyl)-7-methoxy-1H-indazol-6-yl)amino)-6-(cyclopropanecarboxamido)-N-(methyl-d3)nicotinamide], the fraction unbound at 5 h in series [1] is 0.113. Further, the GI50 in series [2] came out at 45.7 nM. The IC50 in series [3] was above 5000 nM; in series [4], 147 nM; in series [5], above 5000 nM; in series [6] it was above 5000 nM; in series [7] it was 33.3 nM.
